In patent US20240352183A1, “CONDUCTIVE POLYMER WITH COVALENT CAPTURE ABILITY AND METHODS OF USING SAME” (Duke University, priority 2021, published 2024) one finds solubility data, which are given here for 1 compound.

The data set in a line: Solubility of EDOT^PEGn-HTL monomer variants in various solvents. The format is physicochemical. As to conditions: compared among three variants (n=1,2,3). The text has this:
EDOT conjugates with HTL have not been reported previously. Initially a series of EDOT^PEGn-HTL monomers (n=1,2,3, . . . ) were synthesized, wherein it was anticipated that increasing the number of PEG repeats would improve solubility, at the risk of exacerbating sidechain steric interference (FIG. 2A). The HTL modification increases the molecular weight of the monomer. The unmodified EDOT has a molecular weight (MW) of […]; while EDOT^PEGn-HTL has a MW of 551 (n=1), 595 (n=2), 639 (n=3), or MW of 507+44×n. Thus, all of the candidate designs carry substantial steric bulk, which is inevitable.
Several conditions were tested, including various solvents, against the three variants. […] EDOT^PEG3-HTL was unable to be polymerized with PSS as the counter-ion. Specifically, whereas the formation of PEDOT:PSS is accompanied by an unmistakable darkening of a gold surface (i.e., the polymer is visible to the naked eye), no visual indication of polymerization was seen when EDOT was replaced with EDOT^PEG3-HTL (FIG. 3A and FIG. 3B). This held true over a wide range of voltage parameters and concentrations.

SMILES strings stand for the structures.

Regarding `O=C(CCOCCOCCOCCNC(=O)COCC1COc2cscc2O1)NCCOCCOCCCCCCCl` (stereo not shown) [EDOT^PEG3-HTL, N-(2-(2-((6-chlorohexyl)oxy)ethoxy)ethyl)-3-((1-(2,3-dihydrothieno[3,4-b][1,4]dioxin-2-yl)-4-oxo-2,8,11-trioxa-5-azatridecan-13-yl)oxy)propanamide], the solubility result was “most soluble”.
